# From patent US20080200337A1, “Mixed herbicide compositions for paddy field” (Bayer CropScience, priority 2007, published 2008)
# Key:
# Type in all cases: in vivo
# [1] = tested on: submerged direct sown paddy (Nipponbare); assay: Phytotoxicity, spray treatment at 1.5 to 3.0 leaf-stage (Test Example 3)
# Protocol: (§1) Carrier: 5 parts by weight of acetone
# (§2) Surfactant: one part by weight of benzyloxy polyglycol ether.
# (§3) Above described carrier and surfactant are mixed with one part by weight of the active compound ((a) ingredient and (b) ingredient) and the resulting preparation is then diluted with water to obtain given amount of the test drug (the formulation).
# (§4) In a greenhouse, seeds of rice (var.: Nipponbare and RD23) and weeds (Echinochloa oryzicola Vasing, Echinochloa cruss-galli, Leptochloa chinensis, Cyperus difformis L., Cyperus iria L., annual broad-leaved weeds (Monochoria vaginalis Presl, Lindernia procumbens Philcox, Lindernia dubia L. Penn., Rotala indica Koehne, Elatine triandra Schk, Ammannia multiflora Roxb. and the like)) were sown in a 500 cm^2 pot filled with paddy field soil and covered with soil. Water was added to the pot (a depth of 0 cm) to be a wet condition, and each test plant was grown in the greenhouse to 1.5 to 3.0 leaf-stage, after then a prescribed, diluted solution of the formulation of each active compound and each herbicidal compound in the table were separately or simultaneously sprayed over the pots with plants. At 3 days after the treatment, the water depth of 3 cm was maintained, and 4 weeks later, herbicidal effect was then examined. In the assessment of the herbicidal effect and the phytotoxicity, 100% refers to complete death and 0% refers to no effect or no phytotoxicity.
# [2] = tested on: submerged direct sown paddy (RD-23); assay: as above
# Protocol: as §1, §2, §3, §4
# [3] = tested on: Cyperus difformis L.; assay: Weed control by spray treatment at 1.5 to 3.0 leaf-stage (Test Example 3); settings: spray at 1.5 to 3.0 leaf-stage, 4 weeks later
# Protocol: as §1, §2, §3, §4
# [4] = tested on: Leptochloa chinensis; assay: as above; settings: spray at 1.5 to 3.0 leaf-stage, 4 weeks later
# Protocol: as §1, §2, §3, §4
# [5] = tested on: annual broad-leaved weeds; assay: as above; settings: spray at 1.5 to 3.0 leaf-stage, 4 weeks later
# Protocol: as §1, §2, §3, §4
# [6] = tested on: Echinochloa cruss-galli; assay: as above; settings: spray at 1.5 to 3.0 leaf-stage, 4 weeks later
# Protocol: as §1, §2, §3, §4
# [7] = tested on: Monochoria vaginalis Presl; assay: as above; settings: spray at 1.5 to 3.0 leaf-stage, 4 weeks later
# Protocol: as §1, §2, §3, §4
# [8] = tested on: Echinochloa oryzicola Vasing; assay: as above; settings: spray at 1.5 to 3.0 leaf-stage, 4 weeks later
# Protocol: as §1, §2, §3, §4
# [9] = tested on: Cyperus iria L.; assay: as above; settings: spray at 1.5 to 3.0 leaf-stage, 4 weeks later
# Protocol: as §1, §2, §3, §4
# [10] = tested on: Echinochloa; assay: Weed control, flooded paddy field, treatment at 3 leaf-stage (Test Example 2); settings: after 4 weeks
# Protocol: as §1, §2, §3
# (§5) In a greenhouse, seeds or tubers of Echinochloa, Cyperus difformis L., Scirpus juncoides Roxburgh, Monochoria vaginalis Presl, annual broad-leaved weeds (Lindernia procumbens Philcox, Lindernia dubia L. Penn., Rotala indica Koehne, Elatine triandra Schk, Ammannia multiflora Roxb.), Cyperus serotinus Rottboel and Sagittaria pygmaea Miq. were inoculated in a 500 cm^2 pot filled with paddy field soil. After 2 leaf-stage of rice were transplanted, water was poured to a depth of about 3 cm. At 3.0 leaf-stage of Echinochloa, a prescribed, diluted solution of the formulation of each active compound and each herbicidal compound in the table was separately or simultaneously applied to the surface of water. After the treatment, the water depth of 3 cm was maintained, and herbicidal effect was examined after 4 weeks. In the assessment of the herbicidal effect and the phytotoxicity, 100% refers to complete death and 0% refers to no effect or no phytotoxicity.
# [11] = tested on: annual broad-leaved weeds; assay: as above; settings: after 4 weeks
# Protocol: as §1, §2, §3, §5
# [12] = tested on: Sagittaria pygmaea Miq.; assay: as above; settings: after 4 weeks
# Protocol: as §1, §2, §3, §5
# [13] = tested on: Monochoria vaginalis Presl; assay: as above; settings: after 4 weeks
# Protocol: as §1, §2, §3, §5
# [14] = tested on: Cyperus serotinus Rottboel; assay: as above; settings: after 4 weeks
# Protocol: as §1, §2, §3, §5
# [15] = tested on: Scirpus juncoides Roxburgh; assay: as above; settings: after 4 weeks
# Protocol: as §1, §2, §3, §5
# [16] = tested on: transplanted rice; assay: Phytotoxicity, flooded paddy field, treatment at 1 leaf-stage (Test Example 1)
# Protocol: as §1, §2, §3
# as §5, with “Echinochloa,” for “Echinochloa, Cyperus difformis L.,”, “1.0” for “3.0”, “Echinochloa oryzicola Vasing,” for “Echinochloa,”
# [17] = tested on: Echinochloa; assay: Weed control, flooded paddy field, treatment at 1 leaf-stage (Test Example 1); settings: after 4 weeks
# Protocol: as §1, §2, §3
# as §5, with “Echinochloa,” for “Echinochloa, Cyperus difformis L.,”, “1.0” for “3.0”, “Echinochloa oryzicola Vasing,” for “Echinochloa,”
# [18] = tested on: annual broad-leaved weeds; assay: as above; settings: after 4 weeks
# Protocol: as §1, §2, §3
# as §5, with “Echinochloa,” for “Echinochloa, Cyperus difformis L.,”, “1.0” for “3.0”, “Echinochloa oryzicola Vasing,” for “Echinochloa,”
# [19] = tested on: Sagittaria pygmaea Miq.; assay: as above; settings: after 4 weeks
# Protocol: as §1, §2, §3
# as §5, with “Echinochloa,” for “Echinochloa, Cyperus difformis L.,”, “1.0” for “3.0”, “Echinochloa oryzicola Vasing,” for “Echinochloa,”
# [20] = tested on: Monochoria vaginalis Presl; assay: as above; settings: after 4 weeks
# Protocol: as §1, §2, §3
# as §5, with “Echinochloa,” for “Echinochloa, Cyperus difformis L.,”, “1.0” for “3.0”, “Echinochloa oryzicola Vasing,” for “Echinochloa,”
# [21] = tested on: Cyperus serotinus Rottboel; assay: as above; settings: after 4 weeks
# Protocol: as §1, §2, §3
# as §5, with “Echinochloa,” for “Echinochloa, Cyperus difformis L.,”, “1.0” for “3.0”, “Echinochloa oryzicola Vasing,” for “Echinochloa,”
# [22] = tested on: Scirpus juncoides Roxburgh; assay: as above; settings: after 4 weeks
# Protocol: as §1, §2, §3
# as §5, with “Echinochloa,” for “Echinochloa, Cyperus difformis L.,”, “1.0” for “3.0”, “Echinochloa oryzicola Vasing,” for “Echinochloa,”
# [23] = tested on: transplanted rice; assay: Phytotoxicity, flooded paddy field, treatment at 3 leaf-stage (Test Example 2)
# Protocol: as §1, §2, §3, §5
smiles,measurement,setting,value
COc1nc(OC)nc(C(O)c2cccc(F)c2N(C)S(=O)(=O)C(F)F)n1 (stereo not drawn) [(a-3)],Phytotoxicity (%) ORYSW*^1,"[1]; 30 g ai/ha, spray at 1.5 to 3.0 leaf-stage, 4 weeks later",0%
same,Phytotoxicity (%) ORYSW*^1,"[1]; 50 g ai/ha, spray at 1.5 to 3.0 leaf-stage, 4 weeks later",10%
same,Phytotoxicity (%) ORYSW*^2,"[2]; 30 g ai/ha, spray at 1.5 to 3.0 leaf-stage, 4 weeks later, RD-23",0%
same,Phytotoxicity (%) ORYSW*^2,"[2]; 50 g ai/ha, spray at 1.5 to 3.0 leaf-stage, 4 weeks later, RD-23",0%
same,Herbicidal effect (%) CYPDI,[3]; 30 g ai/ha,100%
same,Herbicidal effect (%) CYPDI,[3]; 50 g ai/ha,100%
same,Herbicidal effect (%) LEFCH,[4]; 30 g ai/ha,65%
same,Herbicidal effect (%) LEFCH,[4]; 50 g ai/ha,80%
same,Herbicidal effect (%) BBBBB,[5]; 30 g ai/ha,65%
same,Herbicidal effect (%) BBBBB,[5]; 50 g ai/ha,85%
same,Herbicidal effect (%) ECHCG,[6]; 30 g ai/ha,100%
same,Herbicidal effect (%) ECHCG,[6]; 50 g ai/ha,100%
same,Herbicidal effect (%) MOOVP,[7]; 30 g ai/ha,65%
same,Herbicidal effect (%) MOOVP,[7]; 50 g ai/ha,85%
same,Herbicidal effect (%) ECHOR,[8]; 30 g ai/ha,100%
same,Herbicidal effect (%) ECHOR,[8]; 50 g ai/ha,100%
same,Herbicidal effect (%) CYPIR,[9]; 30 g ai/ha,100%
same,Herbicidal effect (%) CYPIR,[9]; 50 g ai/ha,100%
same,Herbicidal effect (%) ECHSS,[10]; 30 g ai/ha,90%
same,Herbicidal effect (%) ECHSS,[10]; 50 g ai/ha,90%
same,Herbicidal effect (%) BBBBB,[11]; 30 g ai/ha,3%
same,Herbicidal effect (%) BBBBB,[11]; 50 g ai/ha,8%
same,Herbicidal effect (%) SAGPY,[12]; 30 g ai/ha,70%
same,Herbicidal effect (%) SAGPY,[12]; 50 g ai/ha,70%
same,Herbicidal effect (%) MOOVP,[13]; 30 g ai/ha,10%
same,Herbicidal effect (%) MOOVP,[13]; 50 g ai/ha,13%
same,Herbicidal effect (%) CYPSEE,[14]; 30 g ai/ha,90%
same,Herbicidal effect (%) CYPSEE,[14]; 50 g ai/ha,90%
same,Herbicidal effect (%) SCPSS,[15]; 30 g ai/ha,60%
same,Herbicidal effect (%) SCPSS,[15]; 50 g ai/ha,60%
same,Phytotoxicity (%) ORYSP,"[16]; 30 g ai/ha, treatment at 1 leaf-stage, after 4 weeks",0%
same,Phytotoxicity (%) ORYSP,"[16]; 50 g ai/ha, treatment at 1 leaf-stage, after 4 weeks",0%
same,Herbicidal effect (%) ECHSS,[17]; 30 g ai/ha,90%
same,Herbicidal effect (%) ECHSS,[17]; 50 g ai/ha,90%
same,Herbicidal effect (%) BBBBB,[18]; 30 g ai/ha,20%
same,Herbicidal effect (%) BBBBB,[18]; 50 g ai/ha,35%
same,Herbicidal effect (%) SAGPY,[19]; 30 g ai/ha,70%
same,Herbicidal effect (%) SAGPY,[19]; 50 g ai/ha,90%
same,Herbicidal effect (%) MOOVP,[20]; 30 g ai/ha,20%
same,Herbicidal effect (%) MOOVP,[20]; 50 g ai/ha,40%
same,Herbicidal effect (%) CYPSEE,[21]; 30 g ai/ha,90%
same,Herbicidal effect (%) CYPSEE,[21]; 50 g ai/ha,90%
same,Herbicidal effect (%) SCPSS,[22]; 30 g ai/ha,60%
same,Herbicidal effect (%) SCPSS,[22]; 50 g ai/ha,60%
same,Phytotoxicity (%) ORYSP,"[23]; 30 g ai/ha, treatment at 3 leaf-stage, after 4 weeks",0%
same,Phytotoxicity (%) ORYSP,"[23]; 50 g ai/ha, treatment at 3 leaf-stage, after 4 weeks",0%
"CCOc1ccccc1OS(=O)(=O)NC(=O)Nc1nc(OC)cc(OC)n1 [(b-5), ethoxysulfuron]",Phytotoxicity (%) ORYSW*^1,"[1]; rice, in vivo, 4 weeks",10%
same,Phytotoxicity (%) ORYSW*^2,"[2]; RD-23, rice, in vivo, 4 weeks",10%
same,Herbicidal effect (%) CYPDI,[3]; 20 g ai/ha,100%
same,Herbicidal effect (%) LEFCH,[4]; 20 g ai/ha,15%
same,Herbicidal effect (%) BBBBB,[5]; 20 g ai/ha,90%
same,Herbicidal effect (%) ECHCG,[6]; 20 g ai/ha,10%
same,Herbicidal effect (%) MOOVP,[7]; 20 g ai/ha,95%
same,Herbicidal effect (%) ECHOR,[8]; 20 g ai/ha,15%
same,Herbicidal effect (%) CYPIR,[9]; 20 g ai/ha,100%
same,Herbicidal effect (%) ECHSS,[10]; 20 g ai/ha,50%
same,Herbicidal effect (%) BBBBB,[11]; 20 g ai/ha,60%
same,Herbicidal effect (%) SAGPY,[12]; 20 g ai/ha,60%
same,Herbicidal effect (%) MOOVP,[13]; 20 g ai/ha,80%
same,Herbicidal effect (%) CYPSEE,[14]; 20 g ai/ha,20%
same,Herbicidal effect (%) SCPSS,[15]; 20 g ai/ha,90%
same,Phytotoxicity (%) ORYSP,"[16]; rice, in vivo, 4 weeks",10%
same,Herbicidal effect (%) ECHSS,[17]; 20 g ai/ha,30%
same,Herbicidal effect (%) BBBBB,[18]; 20 g ai/ha,95%
same,Herbicidal effect (%) SAGPY,[19]; 20 g ai/ha,90%
same,Herbicidal effect (%) MOOVP,[20]; 20 g ai/ha,95%
same,Herbicidal effect (%) CYPSEE,[21]; 20 g ai/ha,60%
same,Herbicidal effect (%) SCPSS,[22]; 20 g ai/ha,95%
same,Phytotoxicity (%) ORYSP,"[23]; rice, in vivo, 4 weeks",0%
